In US8394825B2, “Compound” (Sterix Limited, priority 2007, dated 2013) one finds GI50 data, which are given here for 39 compounds.

SMILES strings stand for the structures. Like-named read-outs stand apart in the source and are kept apart here.

The test system of this test is DU145 cells. The test is described as follows: Antiproliferative assay in DU145 cells, WST-1 cell proliferation assay, 96 hours (GI50). As to conditions: triplicate. The class given is cell-based. The protocol:
Antiproliferative assays. DU145 cells were seeded into 96 well microtiter plates (5000 cells/well) and treated with […] of compounds or with vehicle control. At 96 hours post-treatment, live cell counts were determined by WST-1 cell proliferation assay (Roche, Penzberg, Germany), as per manufacturer's instructions. Viability results were expressed as a percentage of mean control values resulting in the calculation of the 50% growth inhibition (GI50). All experiments were performed in triplicate.
On the technique in general: Tetrazolium dyes change colour on reduction, which living cells bring about.

Where [1] appears, read: 96 hours post-treatment, read-out: DU-145 GI50.
[2] abbreviates: Homo sapiens, DU-145, 96 hours post-treatment.

What is called GI50 is the concentration giving 50% growth inhibition. On to `COc1ccc(CN2CCc3cc(OS(N)(=O)=O)c(OC)cc3C2)cc1` [compound 73, 7-Methoxy-2-(4-methoxybenzyl)-6-O-sulfamoyl-1,2,3,4-tetrahydroisoquinoline], for which the GI50 under setting [1] was 50 to 100 µM.
With `COc1cc2c(cc1OS(N)(=O)=O)CCN(Cc1ccccc1)C2` [compound 74, 2-Benzyl-7-methoxy-6-O-sulfamoyl-1,2,3,4-tetrahydroisoquinoline], the 50% growth inhibitory concentration (GI50) under setting [1] fell in the range of 50 to 100 µM.
Still for that read-out and setting: the same measure for `COc1ccccc1CN1CCc2cc(OS(N)(=O)=O)c(OC)cc2C1` [compound 75, 7-Methoxy-2-(2-methoxybenzyl)-6-O-sulfamoyl-1,2,3,4-tetrahydroisoquinoline]: less than 10 µM; for `COc1cc(CN2CCc3cc(OS(N)(=O)=O)c(OC)cc3C2)cc(OC)c1` [compound 76, 2-(3,5-Dimethoxybenzyl)-7-methoxy-6-O-sulfamoyl-1,2,3,4-tetrahydroisoquinoline]: less than 10 µM.
Regarding `COc1cc2c(cc1OS(N)(=O)=O)CCN(Cc1cccc(C)c1)C2` [compound 77, 7-Methoxy-2-(3-methylbenzyl)-6-O-sulfamoyl-1,2,3,4-tetrahydroisoquinoline], the concentration for 50% growth inhibition (GI50) under setting [1] was 10 to 50 µM.
For the compound `COc1cc2c(cc1OS(N)(=O)=O)CCN(Cc1cccc(Oc3ccccc3)c1)C2` [compound 78, 7-Methoxy-2-(3-phenoxybenzyl)-6-O-sulfamoyl-1,2,3,4-tetrahydroisoquinoline], under setting [1], the 50% growth inhibitory concentration (GI50) lay within 10 to 50 µM.
Still for that read-out and setting: the result for `COc1cc2c(cc1OS(N)(=O)=O)CCN(Cc1cccc(OS(N)(=O)=O)c1)C2` [compound 79, 7-Methoxy-2-(3-(O-sulfamoyl)benzyl)-6-O-sulfamoyl-1,2,3,4-tetrahydroisoquinoline] reads 10 to 50 µM; that for `CCOc1cccc(CN2CCc3cc(OS(N)(=O)=O)c(OC)cc3C2)c1` [compound 80, 2-(3-Ethoxybenzyl)-7-methoxy-6-O-sulfamoyl-1,2,3,4-tetrahydroisoquinoline], less than 10 µM; that for `COc1cc2c(cc1OS(N)(=O)=O)CCN(Cc1cccc(C(C)=O)c1)C2` [compound 82, 2-(3-Acetylbenzyl)-7-methoxy-6-O-sulfamoyl-1,2,3,4-tetrahydroisoquinoline], less than 10 µM.
On to `COc1cc2c(cc1OS(N)(=O)=O)CCN(Cc1cccc(NC(C)=O)c1)C2` [compound 85, 2-(3-Acetamidobenzyl)-7-methoxy-6-O-sulfamoyl-1,2,3,4-tetrahydroisoquinoline], for which, under setting [1], the GI50 was more than 100 µM.
In the case of `COc1cc2c(cc1OS(N)(=O)=O)CCN(Cc1cccc(OC(C)=O)c1)C2` [compound 87, 2-(3-Acetoxybenzyl)-7-methoxy-6-O-sulfamoyl-1,2,3,4-tetrahydroisoquinoline], under setting [1], the GI50 lay within 50 to 100 µM.
The same measure, in the same setting: the same measure for `COc1cc2c(cc1OS(N)(=O)=O)CCN(Cc1cc(OC)c(OC)c(OC)c1)C2` [compound 90, 7-Methoxy-2-(3,4,5-trimethoxybenzyl)-6-O-sulfamoyl-1,2,3,4-tetrahydroisoquinoline]: less than 10 µM; for `COc1cc2c(cc1OS(N)(=O)=O)CCN(Cc1cccc(OC)c1OC)C2` [compound 91, 7-Methoxy-2-(2,3-dimethoxybenzyl)-6-O-sulfamoyl-1,2,3,4-tetrahydroisoquinoline]: less than 10 µM; for `COc1ccc(CN2CCc3cc(OS(N)(=O)=O)c(OC)cc3C2)cc1OC` [compound 92, 7-Methoxy-2-(3,4-dimethoxybenzyl)-6-O-sulfamoyl-1,2,3,4-tetrahydroisoquinoline]: less than 10 µM.
On to `COc1cc2c(cc1OS(N)(=O)=O)CCN(Cc1ccc(OC)c(OC)c1OC)C2` [compound 93, 7-Methoxy-2-(2,3,4-trimethoxybenzyl)-6-O-sulfamoyl-1,2,3,4-tetrahydroisoquinoline], for which the GI50 under setting [1] was 10 to 50 µM.
`COc1ccc(OC)c(CN2CCc3cc(OS(N)(=O)=O)c(OC)cc3C2)c1` [compound 94, 7-Methoxy-2-(2,5-dimethoxybenzyl)-6-O-sulfamoyl-1,2,3,4-tetrahydroisoquinoline]: under setting [1], the GI50 was less than 10 µM.
Turning to `COc1cc(OC)c(OC)cc1CN1CCc2cc(OS(N)(=O)=O)c(OC)cc2C1` [compound 95, 7-Methoxy-2-(2,4,5-trimethoxybenzyl)-6-O-sulfamoyl-1,2,3,4-tetrahydroisoquinoline], the 50% growth inhibitory concentration (GI50) under setting [1] was less than 10 µM.
Still for that read-out and setting: the same measure for `COc1cc2c(cc1OS(N)(=O)=O)CCN(Cc1cccc(O)c1)C2` [compound 97, 2-(3-Hydroxybenzyl)-7-methoxy-6-O-sulfamoyl-1,2,3,4-tetrahydroisoquinoline]: 50 to 100 µM; for `COc1cc2c(cc1OS(N)(=O)=O)CCN(Cc1ccc(C#N)cc1)C2` [compound 99, 2-(4-Cyanobenzyl)-7-methoxy-6-O-sulfamoyl-1,2,3,4-tetrahydroisoquinoline]: 50 to 100 µM; for `COc1cc2c(cc1OS(N)(=O)=O)CCN(Cc1cccc([N+](=O)[O-])c1)C2` [compound 100, 7-Methoxy-2-(3-nitrobenzyl)-6-O-sulfamoyl-1,2,3,4-tetrahydroisoquinoline]: less than 10 µM.
Regarding `COc1cc2c(cc1OS(N)(=O)=O)CCN(Cc1cccc(Cl)c1)C2` [compound 101, 2-(3-Chlorobenzyl)-7-methoxy-6-O-sulfamoyl-1,2,3,4-tetrahydroisoquinoline], the concentration for 50% growth inhibition (GI50) under setting [1] was less than 10 µM.
The same measure, in the same setting: the same measure for `COc1cc2c(cc1OS(N)(=O)=O)CCN(Cc1cccc(OC(F)(F)F)c1)C2` [compound 102, 7-Methoxy-2-(3-trifluoromethoxybenzyl)-6-O-sulfamoyl-1,2,3,4-tetrahydroisoquinoline]: less than 10 µM; for `COc1cc2c(cc1OS(N)(=O)=O)CCN(Cc1cccc(OC(C)C)c1)C2` [compound 104, 2-(3-Isopropoxybenzyl)-7-methoxy-6-O-sulfamoyl-1,2,3,4-tetrahydroisoquinoline]: less than 10 µM.
With `COc1ccc(C(=O)N2CCc3cc(OCc4ccccc4)ccc3C2)cc1OC` [compound 109, 6-Benzyloxy-2-(3,4-Dimethoxybenzoyl)-1,2,3,4-tetrahydroisoquinoline], the 50% growth inhibitory concentration (GI50) under setting [2] was in the range of 10 to 50 µM.
The same measure, in the same setting: the same measure for `COc1cc(OC)cc(C(=O)N2CCc3cc(O)c(OC)cc3C2)c1` [compound 119, 2-(3,5-Dimethoxybenzoyl)-6-hydroxy-7-methoxy-1,2,3,4-tetrahydroisoquinoline]: less than 10 µM.
For `COc1cc2c(cc1OS(N)(=O)=O)CCN(C(=O)c1ccccc1OC)C2` [compound 122, 7-Methoxy-2-(2-methoxybenzoyl)-6-O-sulfamoyl-1,2,3,4-tetrahydroisoquinoline], the GI50 under setting [1] lay in the range of 10 to 50 µM.
Same read-out and setting: the same measure for `COc1cccc(C(=O)N2CCc3cc(OS(N)(=O)=O)c(OC)cc3C2)c1` [compound 123, 7-Methoxy-2-(3-methoxybenzoyl)-6-O-sulfamoyl-1,2,3,4-tetrahydroisoquinoline]: less than 10 µM; for `COc1ccc(C(=O)N2CCc3cc(OS(N)(=O)=O)c(OC)cc3C2)cc1` [compound 124, 7-Methoxy-2-(4-methoxybenzoyl)-6-O-sulfamoyl-1,2,3,4-tetrahydroisoquinoline]: less than 10 µM; for `COc1cc2c(cc1OS(N)(=O)=O)CCN(C(=O)c1cc(OC)c(OC)c(OC)c1)C2` [compound 127, 7-methoxy-6-O-sulfamoyl-2-(3,4,5-trimethoxybenzoyl)-1,2,3,4-tetrahydroisoquinoline]: less than 10 µM.
For `COc1cc2c(cc1OCc1ccccc1)CCN(C(=O)c1ccc(C#N)cc1)C2=O` [compound 136, 6-(Benzyloxy)-2-(4-cyanobenzoyl)-7-methoxy-3,4-dihydro-2H-isoquinoline-1-one], the GI50 under setting [2] is more than 100 µM.
For `COc1ccc(C(=O)N2CCc3cc(OS(N)(=O)=O)c(OC)cc3C2=O)cc1` [compound 147, 2-(4-Methoxybenzoyl)-7-methoxy-6-O-sulfamoyl-3,4-dihydro-2H-isoquinolin-1-one], the GI50 under setting [1] was more than 100 µM.
On the same count and under the same terms, the same measure for `COc1cc2c(cc1OS(N)(=O)=O)CCN(C(=O)c1ccccc1OC)C2=O` [compound 148, 7-Methoxy-2-(2-methoxybenzoyl)-6-O-sulfamoyl-3,4-dihydro-2H-isoquinolin-1-one]: less than 10 µM; for `COc1cccc(C(=O)N2CCc3cc(OS(N)(=O)=O)c(OC)cc3C2=O)c1` [compound 149, 7-Methoxy-2-(3-methoxybenzoyl)-6-O-sulfamoyl-3,4-dihydro-2H-isoquinolin-1-one]: less than 10 µM.
Regarding `COc1cc(OC)cc(C(=O)N2CCc3cc(OS(N)(=O)=O)c(OC)cc3C2=O)c1` [compound 150, 2-(3,5-Dimethoxybenzoyl)-7-methoxy-6-O-sulfamoyl-3,4-dihydro-2H-isoquinolin-1-one], under setting [1], the 50% growth inhibitory concentration (GI50) is less than 10 µM.
The same measure, in the same setting: the result for `COc1ccc(C(=O)N2CCc3cc(OS(N)(=O)=O)c(OC)cc3C2=O)cc1OC` [compound 151, 2-(3,4-Dimethoxybenzoyl)-7-methoxy-6-O-sulfamoyl-3,4-dihydro-2H-isoquinolin-1-one] reads less than 10 µM; that for `COc1cc2c(cc1OS(N)(=O)=O)CCN(C(=O)c1cc(OC)c(OC)c(OC)c1)C2=O` [compound 152, 7-methoxy-6-O-sulfamoyl-2-(3,4,5-trimethoxybenzoyl)-3,4-dihydro-2H-isoquinolin-1-one], less than 10 µM.
The same measure, in the same setting: the same measure for `COc1cc2c(cc1OS(N)(=O)=O)CCN(C(=O)c1cccc(C#N)c1)C2=O` [compound 153, 2-(3-Cyanobenzoyl)-7-methoxy-6-O-sulfamoyl-3,4-dihydro-2H-isoquinoline-1-one]: 10 to 50 µM.
In turn, `COc1ccc(CN2CCc3cc(O[Si](C(C)C)(C(C)C)C(C)C)c(OC)cc3C2=O)cc1` [compound 154, 7-Methoxy-2-(4-methoxybenzyl)-6-(triisopropylsilyloxy)-3,4-dihydro-2H-isoquinolin-1-one] came in with a GI50 under setting [2] of more than 100 µM.
On to `COc1ccc(CN2CCc3cc(OS(N)(=O)=O)c(OC)cc3C2)cc1` [compound 164, 7-Methoxy-2-(4-methoxybenzyl)-6-O-sulfamoyl-3,4-dihydro-2H-isoquinoline], for which, under setting [1], the GI50 is more than 100 µM.
